{"source": "paper PMC2195584", "about": "(The Journal of Experimental Medicine, 1999)", "key": {"[1]": {"system": "Lymph node T cells from CD28-deficient mice", "assay": "Proliferation of retrovirally reconstituted T cells from CD28-deficient mice", "type": "cell-based, mouse", "settings": "single stimulus, anti-CD3 or PMA alone; 36-h culture; quadruplicate"}, "[2]": {"system": "c-fos promoter in Jurkat cells", "assay": "c-fos luciferase reporter, Jurkat cells", "type": "cell-based", "settings": "presence and absence of CD28 antibodies, vs wild-type mCD28"}, "[3]": {"system": "c-Src", "settings": "coexpression in 293 cells; cited from earlier work"}}, "data": [{"molecule": "CCCCCCCCCCCCCC(=O)O[C@@H]1[C@@H](C)[C@@]2(O)[C@@H](C=C(CO)C[C@]3(O)C(=O)C(C)=C[C@@H]23)[C@@H]2C(C)(C)[C@]12OC(C)=O", "note": "[PMA]", "values": [{"measurement": "proliferation ([3H]thymidine), control retrovirus", "setting": "[1]", "value": "proliferated weakly"}]}, {"molecule": "mutated form of mCD28: CD28 with alanines substituted for prolines 187 and 190", "values": [{"measurement": "induction of c-fos promoter (in words)", "setting": "[2]", "value": "significantly impaired in its ability to induce the c-fos promoter"}]}, {"molecule": "SIN: SH3 binding protein, SIN (protein, UniProt Q64355 1-560, looked up) Embryonal Fyn-associated …: MAIATSAQLARALYDNTAESPQELSFRRGDVLRVLQREGAGGLDGWCLCSLHGQQGIVPANRVKLLPAGPAPKPSLCPASPTQPGSSCPTPERGCEEQEVYVIPPPARPCSASGLPARSCSPSSDSIYKVPRGNGMQLTASRDVAEVYDVPPNILRAPSSCPYDSPASFSCPVAPVVPQPPREDEAPYDVPLALKPPAELERDPEWEGGREPGPPLYAAPSNLKRASALLNLYEAPEELLANGESRDADEGIYDVPLLGPEPPSPEPPVASSSTDLDTVAQLPTRSSPPQHRPRLPSTESLSRRPLPALPVSEAPAPSPAPSPAPGRKGSIQDRPLPPPPPCLPGYGGLKPEGDPECREVANDPAGPHNEYEGIPMAEEYDYVHLKGVDTAQGSRPLDKAFPVDPELLERGLAERKEALSPEEPLVLSTGDLQLLHFYAGQCQSHYSALQAAVAALVASTQANQPPCLFVPHGKRVVVAAHRLVFVGDTLGRLAASAALRAQVGAAGTMLAQTLRATVLAVKGAALGYPSDTAVQEMARCVAELAGQALRFTTLLDGLLP", "values": [{"measurement": "c-Src kinase activity induction", "setting": "[3]", "value": "can be induced"}]}]}
